Laboratory results as given in US8809001B2, “High throughput assays for inhibitors and activators of PAQR receptors” (University of Florida Research Foundation, Inc., priority 2007, dated 2014).
Read-outs that look alike come from different tables or passages of the source.

Legend:
mPRγ = target: T1, mPRγ (Homo sapiens, UniProt Q9NXK6); test: FET3-lacZ reporter repression in yeast expressing mPRγ; type: cell-based
T1 construct: Full length and truncated mPRγ and mPRα were expressed in wild type cells grown in 2% galactose from the pGREG536 vector; expressed in transfected cells; host or cells: Saccharomyces cerevisiae (BY4742 wild type; also gpa mutants), GAL1-driven plasmids
T1 sequence (Q9NXK6 1-330): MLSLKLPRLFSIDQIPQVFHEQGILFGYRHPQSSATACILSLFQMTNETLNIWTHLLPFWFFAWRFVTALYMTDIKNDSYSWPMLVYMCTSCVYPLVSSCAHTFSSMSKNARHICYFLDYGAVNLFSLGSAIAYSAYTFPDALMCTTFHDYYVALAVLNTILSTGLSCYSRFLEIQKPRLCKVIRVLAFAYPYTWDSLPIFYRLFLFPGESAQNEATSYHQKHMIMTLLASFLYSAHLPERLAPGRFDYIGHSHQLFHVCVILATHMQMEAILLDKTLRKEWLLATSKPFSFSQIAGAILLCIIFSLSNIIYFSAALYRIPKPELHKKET
Text: (§1) Plasmids and primers. Human PAQRs were cloned into various vectors by PCR from commercially/publically available cDNAs. PAQRs were cloned into the pYES260 (Melcher, 2000), pRS316 (Liu et al., 1992) or pGREG536 (Jansen et al., 2005) expression vectors using gap repair. The pJK90 plasmid containing a Dual Topology Reporter (DTR)-tagged OST4 gene driven by the constitutive TPI1 promoter was kindly provided by Dr. Gunnar von Heijne (Stockholm University) (Kim et al., 2003). The OST4 open reading frame in pJK90 was replaced with the PAQR6 and mPRα open reading frames by gap repair. Primers for all cloning reactions are listed herein. Proteins expressed in pYES260 have an N-terminal 6×-histidine tag followed by a TEV protease cleavage site. Proteins expressed in pGREG536 have an N-terminal 7×-HA tag. Proteins expressed in the pRS316 vector are untagged. The pYES260, pRS316 and pGREG536 vectors allow for galactose-inducible expression via the GAL1 promoter. […] The FET3-lacZ plasmid was previously described (Kupchak et al., 2007). Plasmids derived from pADM4 carrying hyperactive alleles of Gpa1p (Gpa1p^Q323L) (Slessareva et al., 2006) and Gpa2p (Gpa2p^Q300L) (Harashima et al., 2002) driven by the ADH1 promoter were kindly provided by Dr. Henrik Dohlman (UNC Chapel Hill). A pRS316-based plasmid containing the STE2 gene under the control of the GAL1 promoter (Feng et al., 2000) was kindly provided by Dr. Nicholas G. Davis (Wayne State University).
Assays and growth conditions. Strains were maintained using standard protocol and grown in synthetic defined (SD) media with the appropriate amino acids to match the auxotrophies of the individual strains. Low Iron Medium (LIM) contains EDTA to limit iron-bioavailability and its composition has been previously described (Kupchak et al., 2007). […] In brief, overnights of cells grown in SD-glucose media were re-inoculated into iron-deficient LIM to induce the expression of FET3. 2% galactose was used as a carbon source to induce full expression of PAQR genes driven by the GAL1 promoter, while 0.05% galactose/1.95% raffinose was used for reduced PAQR expression. All ligands were added to the growth medium upon re-inoculation into LIM. For experiments in which steroids were added as ligands, steroids were added from ethanol stocks and “untreated” controls are actually treated with an equal volume of ethanol to control for vehicle effects. Cells were allowed to grow to mid-log phase at which time the activity of the FET3 gene was monitored using a FET3-lacZ promoter-reporter construct. lacZ activities are presented as a percentage of activity seen in untreated cells expressing the appropriate empty expression vector control. For individual experiments, each data point has been done in triplicate and the error bars represent +/−1 standard deviation. All experiments were performed at least three times and a representative experiment is shown. EC50 values were obtained using the web-based BioDataFit software using sigmoidal curve-fitting. (web site changbioscience.com/stat/ec50.html)

PAQR9 = target: T2, PAQR9 (Homo sapiens, UniProt Q6ZVX9); test: FET3-lacZ reporter repression in yeast expressing PAQR9; type: cell-based; settings: FET3-lacZ
T2 construct: expressed in transfected cells; host or cells: Saccharomyces cerevisiae BY4742, GAL1-driven pYES260 plasmid
T2 sequence (Q6ZVX9 1-377): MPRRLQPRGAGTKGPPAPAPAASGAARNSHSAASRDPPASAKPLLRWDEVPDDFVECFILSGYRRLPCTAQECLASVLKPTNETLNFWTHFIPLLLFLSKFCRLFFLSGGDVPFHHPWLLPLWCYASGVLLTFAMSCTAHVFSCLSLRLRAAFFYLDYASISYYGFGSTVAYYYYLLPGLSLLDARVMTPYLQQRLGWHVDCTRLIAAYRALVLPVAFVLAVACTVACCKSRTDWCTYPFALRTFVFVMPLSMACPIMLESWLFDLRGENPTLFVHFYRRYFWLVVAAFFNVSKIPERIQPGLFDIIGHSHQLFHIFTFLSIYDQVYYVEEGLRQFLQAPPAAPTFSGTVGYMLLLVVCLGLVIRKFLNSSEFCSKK
Text: as §1
Assays and growth conditions. Strains were maintained using standard protocol and grown in synthetic defined (SD) media with the appropriate amino acids to match the auxotrophies of the individual strains. Low Iron Medium (LIM) contains EDTA to limit iron-bioavailability and its composition has been previously described (Kupchak et al., 2007). […] Cells were allowed to grow to mid-log phase at which time the activity of the FET3 gene was monitored using a FET3-lacZ promoter-reporter construct. lacZ activities are presented as a percentage of activity seen in untreated cells expressing the appropriate empty expression vector control. […]

mPRα = target: T3, mPRα (Homo sapiens, UniProt Q86WK9); test: cell-based
T3 construct: Full length and truncated mPRγ and mPRα were expressed in wild type cells grown in 2% galactose from the pGREG536 vector; expressed in transfected cells; host or cells: Saccharomyces cerevisiae (BY4742 wild type; also gpa mutants), GAL1-driven plasmids (TPI1 promoter in pJK90)
T3 sequence (Q86WK9 1-346): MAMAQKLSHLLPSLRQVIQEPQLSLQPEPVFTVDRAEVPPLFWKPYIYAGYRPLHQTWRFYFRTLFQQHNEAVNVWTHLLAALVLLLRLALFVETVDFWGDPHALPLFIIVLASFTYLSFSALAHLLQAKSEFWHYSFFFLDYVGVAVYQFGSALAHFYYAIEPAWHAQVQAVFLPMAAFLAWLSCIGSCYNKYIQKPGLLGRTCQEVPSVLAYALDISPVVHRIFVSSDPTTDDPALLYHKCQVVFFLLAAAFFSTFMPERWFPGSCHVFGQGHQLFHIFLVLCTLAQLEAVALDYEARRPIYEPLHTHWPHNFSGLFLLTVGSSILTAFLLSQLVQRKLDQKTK
Text: Plasmids and primers. Human PAQRs were cloned into various vectors by PCR from commercially/publically available cDNAs. […] The OST4 open reading frame in pJK90 was replaced with the PAQR6 and mPRα open reading frames by gap repair. Primers for all cloning reactions are listed herein. Proteins expressed in pYES260 have an N-terminal 6×-histidine tag followed by a TEV protease cleavage site. Proteins expressed in pGREG536 have an N-terminal 7×-HA tag. Proteins expressed in the pRS316 vector are untagged. The pYES260, pRS316 and pGREG536 vectors allow for galactose-inducible expression via the GAL1 promoter. […] A pRS316-based plasmid containing the STE2 gene under the control of the GAL1 promoter (Feng et al., 2000) was kindly provided by Dr. Nicholas G. Davis (Wayne State University).
Assays and growth conditions. Strains were maintained using standard protocol and grown in synthetic defined (SD) media with the appropriate amino acids to match the auxotrophies of the individual strains. […] In brief, overnights of cells grown in SD-glucose media were re-inoculated into iron-deficient LIM to induce the expression of FET3. […] All ligands were added to the growth medium upon re-inoculation into LIM. For experiments in which steroids were added as ligands, steroids were added from ethanol stocks and “untreated” controls are actually treated with an equal volume of ethanol to control for vehicle effects. […] All experiments were performed at least three times and a representative experiment is shown. EC50 values were obtained using the web-based BioDataFit software using sigmoidal curve-fitting. (web site changbioscience.com/stat/ec50.html)

PAQR6 = target: T4, PAQR6 (Homo sapiens, UniProt Q6TCH4); test: FET3-lacZ reporter repression in yeast expressing PAQR6; type: cell-based; settings: FET3-lacZ
T4 construct: expressed in transfected cells; host or cells: Saccharomyces cerevisiae BY4742, GAL1-driven pYES260 plasmid
T4 sequence (Q6TCH4 1-344): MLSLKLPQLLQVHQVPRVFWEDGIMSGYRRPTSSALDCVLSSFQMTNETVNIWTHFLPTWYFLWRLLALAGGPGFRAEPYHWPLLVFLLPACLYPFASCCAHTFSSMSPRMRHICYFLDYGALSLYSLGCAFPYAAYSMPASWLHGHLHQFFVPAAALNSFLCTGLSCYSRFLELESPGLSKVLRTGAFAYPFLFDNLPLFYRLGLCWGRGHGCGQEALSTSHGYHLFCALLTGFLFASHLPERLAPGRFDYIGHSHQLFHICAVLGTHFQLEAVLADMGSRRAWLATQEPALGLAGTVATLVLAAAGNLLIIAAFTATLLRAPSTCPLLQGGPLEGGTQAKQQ
Text: as §1, with “Plasmids derived from pADM4 carrying hyperactive alleles of Gpa1p (Gpa1p^Q323L) (Slessareva et al., 2006) and Gpa2p (Gpa2p^Q300L) (Harashima et al., 2002) driven by the ADH1 promoter were kindly provided by Dr. Henrik Dohlman (UNC Chapel Hill). A pRS316-based plasmid containing the STE2 gene under the control of the GAL1 promoter (Feng et al., 2000) was kindly provided by Dr. Nicholas G. Davis (Wayne State University).” left out
(§2) Assays and growth conditions. […] Cells were allowed to grow to mid-log phase at which time the activity of the FET3 gene was monitored using a FET3-lacZ promoter-reporter construct. lacZ activities are presented as a percentage of activity seen in untreated cells expressing the appropriate empty expression vector control. […]

pFET3-397 = pFET3-397 lacZ reporter in yeast with AMPK activator in the growth medium; type: cell-based, Saccharomyces cerevisiae; settings: 500 μM in the growth medium
Protocol: Most experiments were performed in a defined EDTA-containing medium known as low iron medium (LIM) (Eide et al., 1992). Iron-deficiency and repletion were generated by adding either 1 μM or 1 mM of FeCl3, respectively, to LIM. 2% galactose was used to fully induce GAL1-driven gene overexpression. Total sugar concentration was maintained at 2% by the addition of raffinose in those experiments in which the % galactose was modulated to decrease expression levels. Cells were allowed to grow to mid-log phase in LIM and β-galactosidase assays on permeabilized yeast were performed as previously described (Lyons et al., 2000). Ferroxidase activity assays on intact yeast cells followed published procedures using ferrozine as a colorimetric indicator of iron oxidation state (De Silva et al., 1995). All experiments include triplicate data points and each experiment was performed a minimum of three times. Representative experiments are shown. All error bars represent ±1 standard deviation within a single experiment. Because of the simplicity of β-galactosidase assays and the fact that Izh2p overexpression similarly affects both lacZ and ferroxidase activity, lacZ assays are shown for most experiments. For some strains with significant growth defects, such as snf1Δ, lacZ assays were not performed because of the low efficiency of co-transformation of lacZ reporter and overexpression plasmids. […]

Ste2p GPCR = target: T5, Ste2p GPCR (Saccharomyces cerevisiae, UniProt D6VTK4); test: FET3-lacZ reporter in yeast overexpressing Ste2p GPCR; type: cell-based; settings: 1 μM; overexpressed Ste2p, wild type cells (mat a), 2% galactose
T5 construct: expressed in transfected cells; host or cells: Saccharomyces cerevisiae wild type (mat a), pRS316-based GAL1-STE2 plasmid
T5 sequence (D6VTK4 1-431): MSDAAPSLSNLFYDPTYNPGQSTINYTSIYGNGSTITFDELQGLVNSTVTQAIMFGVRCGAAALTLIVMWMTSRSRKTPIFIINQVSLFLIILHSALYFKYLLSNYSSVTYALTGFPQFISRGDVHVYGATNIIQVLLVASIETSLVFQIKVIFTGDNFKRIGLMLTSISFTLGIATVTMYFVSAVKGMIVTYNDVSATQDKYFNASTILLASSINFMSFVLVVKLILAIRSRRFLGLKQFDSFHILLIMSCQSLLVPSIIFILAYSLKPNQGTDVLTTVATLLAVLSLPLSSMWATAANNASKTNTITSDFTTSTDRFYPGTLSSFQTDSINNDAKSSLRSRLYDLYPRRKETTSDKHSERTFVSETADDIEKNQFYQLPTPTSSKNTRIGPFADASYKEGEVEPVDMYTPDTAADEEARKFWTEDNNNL
Text: as §1, with “Plasmids derived from pADM4 carrying hyperactive alleles of Gpa1p (Gpa1p^Q323L) (Slessareva et al., 2006) and Gpa2p (Gpa2p^Q300L) (Harashima et al., 2002) driven by the ADH1 promoter were kindly provided by Dr. Henrik Dohlman (UNC Chapel Hill). A pRS316-based plasmid containing the STE2 gene under the control of the GAL1 promoter (Feng et al., 2000) was kindly provided by Dr. Nicholas G. Davis (Wayne State University).” left out
as §2

[1] = FET3-lacZ, steroids up to 10 μM

For `CC(=O)[C@@]1(O)CC[C@H]2[C@@H]3CCC4=CC(=O)CC[C@]4(C)[C@H]3CC[C@@]21C` [17α-hydroxyprogesterone], the “agonist activity on mPRγ (in words)” value (mPRγ; [1]) was “effective activator”, the EC50 (mPRγ; mPRγ column of Table 4, ligand alone) was 9.3 nM and the “activation of PAQR9 (in words)” value (PAQR9) was “can be activated”. The “agonist activity on mPRα (in words)” value (mPRα; [1]) was “effective activator”, the “activation of mPRα, alterations at the 17 and 21 positions of the pregnane ring (in words)” value (mPRα; further analysis of mPRα (pRS316 plasmid, 2% galactose per FIG. 7C)) was “similarly effective activators” and the EC50 (mPRα; mPRα column of Table 4, ligand alone, read-out: EC50) was 10.2 nM. The EC50 (mPRα; read-out: EC50 for the activation of mPRα) was roughly 10 nM and the “activation of PAQR6 (in words)” value (PAQR6) was “can be activated”.

For `NC(=O)c1ncn([C@@H]2O[C@H](CO)[C@@H](O)[C@H]2O)c1N` [AICAR], the “effect on pFET3-397 activity” value (pFET3-397) was “small but reproducible decrease”.

α-factor was tested, and the “effect on FET3” value (Ste2p GPCR) was “no effect”.
